Where a SMILES comes first, the peptide text is derived from it.
Assays:
[1] = tested on: RG2, clone N32 glioblastoma in the right brain hemisphere; assay: Intracranial pressure in rats with implanted RG2-N32 glioblastoma after nasal peptide; format: in vivo, Fisher 344 rats
Excerpt: (§1) Adult male Fisher 344 rats were purchased from Charles River, Germany. The body weight at the time for the experiments was 230-250 g. The animals had water and pelleted feed ad libitum. Permission to the experiments was granted by the Regional Animal Experiments Ethical Committee, and national and EU rules were followed.
Cultured cells of the established glioma cell line RG2, clone N32, were stereotactically deposited in the right striatum of the brain of adult Fisher 344 rats (A. T. Aas, A Brun, C. Blennow, S. Strömblad and L. G. Salford (1995). The RG2 glioma model. J. Neuro-Oncology 23, 175-183; R. F. Barth and B. Kauer ([…]). Rat brain tumor models in experimental neuro-oncology: the C6, 9L, T9, RG2, F98, BT4C, RT-2 and CNS-1 gliomas. (J Neuro-Oncology 94, 299-312). After 18-22 days, a tumor, fulfilling established criteria for glioblastoma, was demonstrable in the right hemisphere, invading adjacent brain parenchyma (FIGS. 1, 2). […] FIG. 4 is showing the implantation of pressure sensors (Samba 3200; Samba Sensors A B, V. Frölunda, Sweden), one in each hemisphere. The intracranial pressure was measured to be in the range of 25-50 mm Hg (FIG. 4), that means strikingly elevated as compared to normally 5.3±2.1 mm Hg (H.-A. Hansson, M. Al-Olama, E. Jennische, K. Gatzinsky and S. Lange (2012). The peptide AF-16 and the AF protein counteract intracranial hypertension. Acta Neurochir. Suppl. 114, 377-382). Eventually, the intracranial pressure exceed 50-60 mm Hg, resulting in herniation of the brain, dislocations and impaired blood circulation, and death (FIG. 5).
The intracranial pressure was raised both in the tumor affected right side and in the contralateral left side, and the pressure dropped to the same extent in either brain hemisphere. Concomitantly, any demonstrable neurological impairment resolved.
Cultured cells of the established glioma cell line RG2, clone N32, were stereotactically deposited in the right striatum of the brain of adult Fisher 344 rats as described in
After 18-22 days a tumor, fulfilling established criteria for glioblastoma, was demonstrable in the right hemisphere, invading adjacent brain parenchyma.
A single dose of the peptide AF-6 (1-2 mg/kg body weight, dissolved in water) was instilled in the nose of a Fisher rat with an experimental glioblastoma tumor of the RG2-N32 origin at day 21 after implantation. About 15 min later the intracranial pressure started to dropped from 25-27 mm Hg to 17.7 mm Hg (FIG. 7).

[2] = tested on: GL261 glioma tumor in the right brain hemisphere; assay: Intracranial / interstitial fluid pressure in mice with GL261 glioma after nasal peptide; format: in vivo, C57/BI/6 mice
Excerpt: Adult C57/BI/6 mice were purchased from B & K, Sollentuna, Sweden. The body weight was 23 g and the animals had water and pelleted feed ad libitum. Permission to the experiments was granted by the Regional Animal Experiments Ethical Committee, and national and EU rules were followed.
The GL261 mouse glioma cell line was of C57/BI/6 origin and cultured in the Rausing laboratory, BMC, Lund University, according to an established protocol (K. Enell Smith, S. Fritzell, W. Badn, S. Eberstål, S. Janelidze, E. Visse, A. Darabi and P. Siesjö (2008). Cure of established GL261 mouse gliomas after combined immunotherapy with GM-CSF and IFNγ is mediated by both CD8^+ and CD4^+ T-cells. Int. J. Cancer 124, 630-637).
C57/BI/6 mice had each 5.000 GL261 glioma cells in 5 μL tissue culture medium stereo tactically deposited in deep brain structure in the right brain hemisphere. An expanding tumor was formed and had 22 days later a diameter of 3-5 mm.
The six AA peptide AF-6 (SEQ ID NO:2) (manufactured by solid phase synthesis by K J Ross-Petersen ApS, Copenhagen, with >95% purity and TFA as counter ion) was selected to be investigated for its ability to reduce the increased intracranial pressure (ICP) inevitably evolving at this stage of tumor development.
A mouse with a GL261 tumor in the right brain hemisphere was anaesthetized with isofluran and positioned in a stereotactic holder. […]

[3] = tested on: RG2, clone N32 glioblastoma tumor cell nuclei; assay: Uptake of tracer doxorubicin into glioblastoma cell nuclei of rats (fluorescence microscopy); format: in vivo, Fisher 344 rats
Excerpt: The aim of this experiment was to investigate if treatment with AF-16 increased the penetration of a marker through the tumor cells membrane and subsequent entrance and distribution in their nuclei. Doxorubicin was selected as a tracer for the reason that it is an established cytotoxic drug with a molecular mass of 543.52 g/mol, i.e. being considered as a fairly low molecular mass substance. Further, doxorubicin has a red color and when exposed to light emits a red fluorescence. Doxorubicin is strongly intercalating with the DNA in cell nuclei. This means that if a red fluorescence is observed in a cell nucleus the marker has been reached its target, the tumor cells. It is known that glioblastoma cells, in humans as in animals, prevent the entrance of chemotherapeutic substances into the tumor cells, and consequently no beneficial effects are attained. The most important barrier to the drug is prevailing at the surface of the tumor cells.
as §1
Cultured cells of the established glioma cell line RG2, clone N32, were stereotactically deposited in the right striatum of the brain of adult Fisher 344 rats as described in Example 1. After 20 days a tumor, fulfilling established criteria for being a glioblastoma, was present in the right brain hemisphere of either rat.
AF-16, 1 mg per kg body weight, dissolved in water and administrated as a single dose in a volume of 10 μL, was instilled in the nostrils of anaesthetized Fisher rats. […] Cryostat microtome sections were prepared of the brains, and examined with the aid of fluorescence microscope.
That means that very few doxorubicin molecules entered the tumor cells.

[4] = tested on: experimentally induced glioblastoma tumor cell nuclei; assay: Uptake and binding of doxorubicin to tumor cell nuclei in mice with experimentally induced glioblastoma; format: in vivo; details: additional experiments
[5] = AF-16 1 mg per kg body weight nasally, 1 h before i.v. doxorubicin 10 mg per kg, sacrificed 30 min later
[6] = AF-16 4 mg/kg bw nasally 1 h prior to i.v. doxorubicin 10 mg/kg bw, brains removed 30 min later
[7] = single nasal instillation 1-4 mg/kg body weight

| Compound | side effects ([1]; single nasal dose 1-2 mg/kg body weight) | side effects ([2]; nasal 5 mg per kg body weight) | doxorubicin staining of the tumor cell nuclei [3, 5] | proportion of tumor cells labeled by doxorubicin [3, 5] | frequency of doxorubicin-stained tumor cell nuclei vs vehicle pretreatment [3, 6] | intensity of doxorubicin staining of tumor cell nuclei vs vehicle pretreatment [3, 6] | effect on uptake of doxorubicin by tumor cell nuclei (summary statement) ([3]; animals with experimentally induced glioblastoma) | effect on raised intracranial pressure (summary statement) ([1]; animals with experimentally induced glioblastoma, tumor and contralateral hemisphere) | start of intracranial pressure decrease after nasal administration ([1]; nasal AF-16 4 mg/kg bw) | intracranial pressure attained ([1]; nasal AF-16 4 mg/kg bw, in half an hour, either brain hemisphere) [mm Hg] | duration of the beneficial effects on intracranial pressure [1, 7] [h] | time to reduction of the high intracranial pressure [1, 7] [min] | intracranial pressure after reduction (acceptable level) ([1]; single nasal instillation 1-4 mg/kg body weight in 10 μL water, baseline 25-50 mm Hg, both hemispheres) [mm Hg] | demonstrable neurological impairment ([1]; single nasal instillation 1-4 mg/kg body weight, concomitant with pressure drop) | effect on uptake and binding of doxorubicin to tumor cell nuclei [4] | effect on raised intracranial pressure (statement in words) ([2]; mice with experimentally induced glioblastoma) |
| --- | --- | --- | --- | --- | --- | --- | --- | --- | --- | --- | --- | --- | --- | --- | --- | --- |
| C[C@@H](O)[C@H](NC(=O)[C@H](CCCCN)NC(=O)[C@H](CO)NC(=O)[C@H](Cc1c[nH]cn1)NC(=O)[C@@H](N)CS)C(=O)N[C@@H](CCCNC(=N)N)C(=O)O [AF-6, CHSKTR] (H-CHSKTR-OH) | No side effects could be disclosed | No side effects were noticed |  |  |  |  |  |  |  |  |  |  |  |  |  |  |
| VCHSKTRSNPENNVGL (Variant (2)..(2) C may be replaced by S; Variant (3)..(3) H may be replaced by R or K; Variant (4)..(4) S may be replaced by L; Variant (6)..(6) T may be replaced by A) [AF-16, a peptide composed of the amino acids …, fragment of antisecretory factor protein] |  |  | strong red staining | a large proportion of these cells were labeled | increased | increased | efficiently improved the uptake | lower the raised intracranial pressure | about 12 minutes | ~20 | 4 to 6 | 15 to 30 | ≤ 20 | resolved | facilitated the uptake and binding of doxorubicin to tumor cell nuclei | reduced the high intracranial pressure |

Reference: patent US20190192622A1, “Use of Antisecretory Factor (AF) in Glioblastoma Treatment” (LANTMÄNNEN AS-FAKTOR AB, priority 2012, published 2019)
